# What was measured:
# [1] = target: T1, amyloid β peptide (Aβ40 fibrils) (Homo sapiens, UniProt P05067); assay: direct fluorescence titration of Aβ[…] fibrils, one-site fit; assay type: binding
# [2] = target: T1, amyloid β peptide (Aβ40 fibrils); assay: ThT fluorescence competition assay with Aβ[…] fibrils; assay type: binding
# T1 sequence (P05067 672-711): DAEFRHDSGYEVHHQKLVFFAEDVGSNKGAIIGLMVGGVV
Kd [1] [nM],Ki [2] [nM],SMILES
4700 ± 300,,"CCN(CC)c1ccc(-c2nc3ccccc3s2)c(O)c1 [L1, 2-[2-hydroxy-4-(diethylamino)phenyl]benzothiazole]"
,15 ± 10,"COc1cccc(-c2nc3ccccc3s2)c1O [L2, 2-(2-hydroxy-3-methoxyphenyl)benzothiazole]"
